Test system: high fat diet (HFD) rabbit model of metabolic-associated steatohepatitis (MASH)
Assay: HFD rabbit study, prolonged 4-week treatment (weeks 9–12): clinical and biochemical data
Format: in vivo, New Zealand White rabbits
Details: HFD rabbits, mean±SD, n=7
Procedure: After 1 week (W) of RD, the animals (n = 44) were randomly assigned to the following groups (Table 1B): • Control rabbits continued to receive a RD for 12 weeks and were treated with vehicle for 5 days a week (days 1–5, p.o.) during the last 4 weeks before culling (RD + 4W Veh group); • Rabbits received a HFD for 8 weeks and were culled (HFD 8W group); • Rabbits received a HFD for 12 weeks and were treated with vehicle for 5 days a week (days 1–5, p.o.) during the last 4 weeks before culling (HFD+4W Veh group); • Rabbits received a HFD for 12 weeks and were treated with GB1211 (0.3 mg/kg) for 5 days a week (days 1–5, p.o.) during the last 4 weeks before culling (HFD + 4W 0.3 mg group); • Rabbits received a HFD for 12 weeks and were treated with GB1211 (1.0 mg/kg) for 5 days a week (days 1–5, p.o.) during the last 4 weeks before culling (HFD + 4W 1.0 mg group); • Rabbits received a HFD for 12 weeks and were treated with GB1211 (5.0 mg/kg) for 5 days a week (days 1–5, p.o.) during the last 4 weeks before culling (HFD + 4W 5.0 mg group).
The oral glucose tolerance test (OGTT) was performed in accordance with the published method ([Filippi et al., 2009]). Briefly, after an overnight fast, a 50% glucose solution was orally administered to the animals at a dose of 1.5 g/kg. Blood samples were collected before and 15, 30, and 120 min after glucose loading. The incremental area under the curve (iAUC) was calculated by using GraphPad Prism (GraphPad Software, San Diego, CA). Blood samples for analyses were obtained from the marginal ear vein at week 8 or 12, in all groups. All blood samples were collected in standard conditions, before 10 a.m. after an overnight fasting. The blood was immediately centrifuged at 2,000 g for 20 min at 4°C and collected plasma/serum stored at −80°C until assayed. Plasma glucose, total cholesterol, triglycerides, transaminases (AST and ALT), and gamma-glutamyl transferase levels were measured using an automated system (Cobas 8000, Roche Diagnostics International AG, Rotkreuz, Switzerland). Serum alkaline phosphatase, albumin and total bilirubin levels were measured at IDEXX Laboratories (Kornwestheim, Germany), using an automated system (AU480, Beckman-Coulter, Brea, CA) with kinetic and photometric colour tests as per the following methods: alkaline phosphatase - alkaline buffer solution [2-amino-2-methylpropanol (AMP) in conjunction with p-nitrophenyl phosphate (pNPP)], according to the recommendation of the International Federation for Clinical Chemistry; albumin - the reaction of bromocresol green with albumin produces a colour complex, the absorption of which is measured dichromatically ([Doumas et al., 1971]); total bilirubin - a stabilized diazonium salt, 3,5-dichlorophenyldiazonium tetrafluoroborate (DPD), reacts with bilirubin to formazobilirubin, which absorbs at 570 nm ([Tolman and Rej, 1999]).
Mean arterial blood pressure (MAP) was measured by using a polyethylene catheter inserted into a femoral artery at week 8 or 12, after ketamine (10 mg/kg i.v.) and sodium thiopental (50 mg/kg i.v.) sedation.

## OC[C@H]1O[C@H](Sc2cncc(Br)c2)[C@H](O)[C@@H](n2cc(-c3cc(F)c(F)c(F)c3)nn2)[C@H]1O [selvigaltin]
0.3 mg/kg p.o. 5 days/week
  ALP: 69.43 ± 38.22 U/L
  ALT: 45.71 ± 22.51 U/L
  AST: 74.29 ± 51.50 U/L
  Albumin: 38.29 ± 4.42 g/L
  Bilirubin: 17.91 ± 13.00 µM
  Glycaemia: 1.21 ± 0.15 gr/L
  Liver Weight: 3.56 ± 0.28 % of BW
  MAP: 144.91 ± 16.18 mmHg
  OGTT (iAUC): 165.51 ± 20.71
  Plasma Cholesterol: 2,277.43 ± 1,078.47 mg/dL
  Plasma Triglycerides: 374.00 ± 619.70 mg/dL
  Tissue Triglycerides: 14.76 ± 2.26 nmol/mg Liver
  VAT Weight: 0.67 ± 0.21 % of BW
  γGT: 30.08 ± 22.90 U/L
1.0 mg/kg p.o. 5 days/week
  ALP: 72.86 ± 65.69 U/L
  ALT: 58.14 ± 27.72 U/L
  AST: 59.00 ± 37.48 U/L
  Albumin: 38.71 ± 2.63 g/L
  Bilirubin: 9.53 ± 3.73 µM
  Glycaemia: 1.90 ± 0.87 gr/L
  Liver Weight: 3.73 ± 0.32 % of BW
  MAP: 151.23 ± 26.21 mmHg
  OGTT (iAUC): 189.37 ± 22.39
  Plasma Cholesterol: 2,182.86 ± 776.09 mg/dL
  Plasma Triglycerides: 157.29 ± 68.66 mg/dL
  Tissue Triglycerides: 14.34 ± 1.35 nmol/mg Liver
  VAT Weight: 0.68 ± 0.24 % of BW
  γGT: 27.71 ± 14.16 U/L
5.0 mg/kg p.o. 5 days/week
  ALP: 49.57 ± 30.84 U/L
  ALT: 56.43 ± 20.02 U/L
  AST: 62.43 ± 15.80 U/L
  Albumin: 39.29 ± 5.94 g/L
  Bilirubin: 15.45 ± 9.05 µM
  Glycaemia: 1.43 ± 0.35 gr/L
  Liver Weight: 3.56 ± 0.16 % of BW
  MAP: 141.04 ± 30.52 mmHg
  OGTT (iAUC): 165.00 ± 2.65
  Plasma Cholesterol: 1,546.43 ± 350.47 mg/dL
  Plasma Triglycerides: 191.43 ± 234.40 mg/dL
  Tissue Triglycerides: 14.51 ± 1.49 nmol/mg Liver
  VAT Weight: 0.87 ± 0.32 % of BW
  γGT: 21.29 ± 13.11 U/L
